From patent US20200339691A1, “PROTEINACEOUS MOLECULES AND USES THEREFOR” (priority 2018, published 2020)
“Also recorded” adds a separate entry of the source. Where a SMILES comes first, the peptide text is derived from it. The star is where a group is joined. Myristoyl = CCCCCCCCCCCCCC(=O)*

What was measured:
[1] = test system: cell surface vimentin (CSV); assay: Immunofluorescence of CSV in MDA-MB-231 cells, Example 14; format: cell-based, human; conditions: 50 μM, 72 hours
Method: (§1) 1×10^4 MDA-MB-231 cells were treated with 50 μM P1, P2, P3 (synthesized in accordance with Example 5) or vehicle (water) for 72 hours. Cells were fixed with 3.7% formaldehyde and permeabilized with 2% Triton-X-100, then probed with a primary rabbit antibody to PD-L2, primary goat antibody to PD-L1 and primary mouse antibody to CSV, followed by the corresponding secondary antibody conjugated to anti-mouse Alexa-Fluor 568, anti-goat Alexa-Fluor 633 or anti-rabbit Alexa-Fluor 488. Confocal laser scanning microscopy was used to measure the TNFI and TCFI as described above. At least 20 individual cells were analyzed per sample.

MDA-MB-231 cells [2] = assay: FACS analysis of the cancer stem cell phenotype (CD44^high/CD24^low) in response to P1, P2 and P3; format: cell-based, human; conditions: 6.25-400 μM, 72 hours
Method: 5×10^4 MDA-MB-231 cells were seeded with 1 mL of complete DMEM in 12 well plates overnight. […] Samples were harvested by trypsinization followed by washing with DPBS containing 2% HI-FBS. FACS staining was performed using anti-human CD44-APC, anti-human CD24-PE, Hoechst and anti-human EpCAM antibody cocktails. Data was collected from a BD-FACSLSR-II flow cytometer. Treestar FlowJo was used for data analysis.

[3] = test system: cell surface vimentin (CSV); assay: Immunofluorescence of CSV in MDA-MB-231 cells, Example 9; format: cell-based, human; conditions: 50 μM, 72 hours
Method: (§2) 1×10^4 MDA-MB-231 cells were seeded onto coverslips in 12 well plates with DMEM media. Cells were treated with 50 μM P1, P2, P3 or P4 (synthesized in accordance with Example 5) or vehicle (water) for 72 hours. Cells were fixed with 3.7% formaldehyde and permeabilized with 2% Triton-X-100, then probed with primary mouse antibodies to CSV, DMNT1, H3K9me3 or 5-methylcytosine; primary goat antibodies to SNAI1, SETDB1 or ABCB5; or primary rabbit antibodies to PD-L1, EGFR, EHMT2; followed by the corresponding secondary antibody conjugated to anti-mouse Alexa-Fluor 568, anti-goat Alexa-Fluor 633 or anti-rabbit Alexa-Fluor 488. Confocal laser scanning microscopy was used to measure the TFI, TNFI and TCFI as described above. At least 20 individual cells were analyzed per sample.

MDA-MB-231 cells [4] = conditions: 72 h
Method: The effect of P1, P2 and P3 (synthesized in accordance with Example 5) on MDA-MB-231 cell proliferation was assessed using a WST-1 proliferation assay.
MCF7 cells were transfected with a plasmid containing the wild-type PD-L1 sequence, a plasmid containing a PD-L1 [K263Q] mutant (Mut1) or vector only (VO) using the NEON electroporation transfection system (Life Technologies). Transfected cells were used for the colorimetric based WTS-1 proliferation assay (Sigma-Aldrich) to examine the effect of transfection on MCF7 cell proliferation. The WTS-1 proliferation assay was also used to determine the effect of treatment with P1, P2 and P3 (synthesized in accordance with Example 5) on MDA-MB-231 cell proliferation. The stable tetrazolium salt WST-1 is cleaved to a soluble formazan by a complex cellular mechanism that occurs primarily at the cell surface. This bioreduction is largely dependent on the glycolytic production of NAD(P)H in viable cells. Therefore, the amount of formazan dye formed directly correlates to the number of metabolically active cells in the culture. Cells grown in a 96-well tissue culture plate were treated with vehicle only or 6.25, 12.5, 25, 50, 100, 200 or 400 μM of P1, P2 or P3 for 72 hours at 37° C. in a humidified CO2 incubator. Cells were then incubated with the WST-1 reagent for 0.5-4 hours. Following incubation, the formazan dye formed is quantitated with a scanning multi-well spectrophotometer (ELISA reader). The measured absorbance directly correlates to the number of viable cells.

PD-L1 [5] = assay: Immunofluorescence of PD-L1 in MDA-MB-231 cells, Example 14; format: cell-based, human; conditions: 50 μM, 72 hours
Method: as §1

DMNTI = assay: Immunofluorescence of DMNTI in MDA-MB-231 cells; format: cell-based, human; conditions: 50 μM, 72 hours
Method: Cells were treated with 50 μM P1, P2, P3 or P4 (synthesized in accordance with Example 5) or vehicle (water) for 72 hours. […] Confocal laser scanning microscopy was used to measure the […] and TCFI as described above. At least 20 individual cells were analyzed per sample.

PD-1 = assay: Immunofluorescence of PD-1 in Jurkat T-cells; format: cell-based; conditions: 50 μM, 72 hours, relative to the control
Method: 1×10^4 Jurkat T-cells were seeded onto coverslips in 12 well plates with DMEM media. Cells were treated with 50 μM P1, P2, P3 (synthesized in accordance with Example 5) or vehicle (water) for 72 hours. Cells were fixed with 3.7% formaldehyde and permeabilized with 2% Triton-X-100, then probed with a primary mouse antibody to PD-1 directly conjugated to Alexa-Fluor 647. Confocal laser scanning microscopy was used to measure the TNFI, TCFI and Fn/c as described above. At least 20 individual cells were analyzed per sample.

PD-L1 [6] = assay: Immunofluorescence of PD-L1 in MDA-MB-231 cells, Example 9; format: cell-based, human; conditions: 50 μM, 72 hours
Method: as §2

EGFR = assay: Immunofluorescence of EGFR in MDA-MB-231 cells; format: cell-based, human; conditions: 50 μM, 72 hours
Method: as §2

[7] = test system: CD44^hiCD24^lo CSCs in MDA-MB-231 cells; assay: FACS analysis of CD44^hiCD24^lo cancer stem cells in MDA-MB-231 cells treated with P1 analogues; format: cell-based, human; conditions: 50 μM peptide, 48 hours; for CD44^hiCD24^lo CSCs (%) / COI, Live Single CD44^hiCD24^lo CSCs (Cell Count): n = 1; for Average Inhibition of CSCs (%) / CD44^hiCD24^lo CSCs (%) Repeat 1 / CD44^hiCD24^lo CSCs (%) Repeat 2 / CD44^hiCD24^lo CSCs (%) Repeat 3: n = 3
Method: Analogues of P1 (Table 6) were designed and synthesized in accordance with the procedure of Example 5. The ability of these analogues to inhibit cancer stem cells was determined using FACS analysis on MDA-MB-231 cells, which constitutively contain approximately 90% CD44^hiCD24^lo cancer stem cells, treated with the peptides.
Non-adherent cells were removed during the washing steps.

SMILES	CSV expression [1]	cancer stem cell phenotype (CD44^high/CD24^low) (MDA-MB-231 cells [2])	expression of CSV [3]	IC50 (MDA-MB-231 cells [4])	nuclear localization of PD-L1 (PD-L1 [5])	expression / nuclear localization of DMNTI (DMNTI)	PD-1 nuclear localization (PD-1)	PD-L1 nuclear localization (PD-L1 [6])	expression of EGFR (EGFR)	Inhibition of CSCs (%) Repeat 1 [7]	Inhibition of CSCs (%) Repeat 2 [7]	Inhibition of CSCs (%) Repeat 3 [7]	CD44^hiCD24^lo CSCs (%) [7]	COI, Live Single CD44^hiCD24^lo CSCs (Cell Count) [7]	Average Inhibition of CSCs (%) [7]	CD44^hiCD24^lo CSCs (%) Repeat 1 [7]	CD44^hiCD24^lo CSCs (%) Repeat 2 [7]	CD44^hiCD24^lo CSCs (%) Repeat 3 [7]
CCCCCCCCCCCCCC(=O)N[C@@H](CC(C)C)C(=O)N[C@H](C(=O)N[C@@H](Cc1ccccc1)C(=O)N[C@H](C(=O)N[C@@H](Cc1ccccc1)C(=O)N[C@@H](CCCNC(=N)N)C(=O)N[C@@H](CC(C)C)C(=O)N[C@@H](CCCNC(=N)N)C(=O)N[C@@H](CCCCN)C(=O)NCC(=O)N[C@@H](CCCNC(=N)N)C(=O)N[C@@H](CCSC)C(=O)N[C@@H](CCSC)C(=O)N[C@@H](CC(=O)O)C(=O)N[C@H](C(=O)N[C@@H](CCCCN)C(=O)N[C@@H](CCCCN)C(N)=O)C(C)C)[C@@H](C)CC)[C@@H](C)O [Peptide P1, Myristoyl-LTFIFRLRKGRMMDVKK-NH2] (Myristoyl-LTFIFRLRKGRMMDVKK-NH2)	significantly inhibited	significantly inhibited	uniformly inhibited	103 µM	significantly inhibited	significantly abrogated	significantly inhibited	significantly inhibited	uniformly inhibited	93.33%	89.97%	90.28%	15.77%	220	91.19%	5.98%	9.00%	8.72%
CCCCCCCCCCCCCC(=O)N[C@@H](CC(C)C)C(=O)N[C@H](C(=O)N[C@@H](Cc1ccccc1)C(=O)N[C@H](C(=O)N[C@@H](Cc1ccccc1)C(=O)N[C@@H](CCCNC(=N)N)C(=O)N[C@@H](CC(C)C)C(=O)N[C@@H](CCCNC(=N)N)C(=O)N[C@@H](CCC(N)=O)C(=O)NCC(=O)N[C@@H](CCCNC(=N)N)C(=O)N[C@@H](CCSC)C(=O)N[C@@H](CCSC)C(=O)N[C@@H](CC(=O)O)C(=O)N[C@H](C(=O)N[C@@H](CCCCN)C(=O)N[C@@H](CCCCN)C(N)=O)C(C)C)[C@@H](C)CC)[C@@H](C)O [Peptide P2, Myristoyl-LTFIFRLRQGRMMDVKK-NH2] (Myristoyl-LTFIFRLRQGRMMDVKK-NH2)	significantly inhibited	significantly inhibited	uniformly inhibited	564 µM	significantly inhibited	significantly abrogated	significantly inhibited	significantly inhibited	uniformly inhibited	79.10%	82.65%	85.94%	13.99%	616	82.56%	18.73%	15.56%	12.62%
CCCCCCCCCCCCCC(=O)N[C@@H](CC(C)C)C(=O)N[C@H](C(=O)N[C@@H](Cc1ccccc1)C(=O)N[C@H](C(=O)N[C@@H](Cc1ccccc1)C(=O)N[C@@H](CCCNC(=N)N)C(=O)N[C@@H](CC(C)C)C(=O)N[C@@H](CCCNC(=N)N)C(=O)N[C@@H](CCCCNC(C)=O)C(=O)NCC(=O)N[C@@H](CCCNC(=N)N)C(=O)N[C@@H](CCSC)C(=O)N[C@@H](CCSC)C(=O)N[C@@H](CC(=O)O)C(=O)N[C@H](C(=O)N[C@@H](CCCCN)C(=O)N[C@@H](CCCCN)C(N)=O)C(C)C)[C@@H](C)CC)[C@@H](C)O [Peptide P3, Myristoyl-LTFIFRLRK(Ac)GRMMDVKK-NH2] (Myristoyl-LTFIFRLRK(Ac)GRMMDVKK-NH2)	significantly inhibited	significantly inhibited; also recorded: greatest inhibition	uniformly inhibited	542 µM	significantly inhibited	significantly abrogated	significantly inhibited	significantly inhibited	uniformly inhibited	92.77%	91.10%	87.85%	8.04%	410	90.57%	6.48%	7.99%	10.90%
